Laboratory results: US20260055061A1, “HALOPHTHALIMIDE COMPOUNDS AND METHODS OF USE AGAINST TBI, INFLAMMATORY DISORDER, AUTOIMMUNE DISORDER, NEURODEGENERATIVE DISEASE OR VIRAL INFECTION” (The United States of America, as represented by the …, priority 2022, published 2026)
Entries after “also recorded” stand apart in the source; their conditions may differ.

Legend:
[1] = molecular target: cereblon (CRBN/DDB1-CUL4A-Rbx1 complex) / BRD3 (Homo sapiens (Human), UniProt Q96SW2); test: Cereblon/BRD3 binding assay (AlphaScreen / FRET); settings: for IC50: Example 5, FIG. 20A; for cereblon binding (in words): cereblon/BRD3 binding FRET assay
Protocol: After 30 min of incubation with shaking at room temperature, AlphaLISA anti-FLAG Acceptor and Alpha Glutathione Donor beads (PerkinElmer) were sequentially added and then incubated for 1 hr at room temperature for each of the added chemicals. Alpha counts were thereafter read on a Synergy Neo2 (BioTek) for the analysis. Relative activity or inhibition was calculated as the highest value, which was set to 100%, and the lowest value was set to 0% after subtraction of the “blank value” from all readings.
After 30 min of incubation with shaking at room temperature, AlphaLISA anti-FLAG Acceptor and Alpha Glutathione Donor beads (PerkinElmer) were sequentially added and then incubated for 1 h at room temperature for each of the added chemicals. Alpha counts were thereafter read on a Synergy Neo2 (BioTek) for the analysis. The relative activity of the alpha signal was calculated after subtraction of the “blank value” from all readings, and the value of the vehicle group was then set as 100%.

CCI-induced TBI mice [2] = test: Controlled cortical impact (CCI) mouse model of TBI: beam walking test; format: in vivo; settings: for beam walking test average transit time / beam walking test immobility time: 1 week after CCI
Protocol: (§1) In vivo model of TBI: Mice were anesthetized with 2.5% tribromoethanol (Avertin: 250 mg/kg; Sigma, St. Louis, MO, USA) and placed in a stereotaxic frame (Kopf Instruments, Tujunga, CA, USA). A 4 mm craniotomy was performed using sterile procedures; the craniotomy point was selected midway between the lambda and bregma sutures and laterally midway between the central suture and the temporalis muscle. The skull fragment was then carefully removed without disruption of the underlying dura. Prior to injury induction, the tip of the impactor was angled and kept perpendicular to the exposed cortical surface. The mouse CCI instrument consisted of an electromagnetic impactor, Impact One (Leica Biosystems Inc., Buffalo Grove, IL, USA) that allows independent alteration of injury severity by controlling contact velocity and the level of cortical deformation. In these experiments, the contact velocity was set at 5.0 m/sec, the dwell time was set at 0.2 s and the deformation depth was set at 2 mm to produce a moderate TBI. The injury site was allowed to dry prior to suturing the wound. During surgery and recovery, the body temperature of the animals was maintained at 36-37° C. by using a heating pad. […] Mice were randomized following CCI to treatment with either of two doses of TFBP (16.25 mg/kg and 32.5 mg/kg, i.p.) or saline, and were dosed at 1 and 24 hr after the injury.
(§2) Behavioral assessment for motor functions and coordination: Behavioral tests were performed 1 week and 2 weeks after injury, to assess changes in motor functions and coordination. All tests were performed during the animals' light phase; cages were transported to testing rooms at least 30 min prior to testing.
Beam Walking Test (BWT): A BWT was used to assess CCI-induced deficits in fine motor coordination. Mice have a preference for a darkened enclosed environment, as compared to an open illuminated one. Each animal was placed in darkened goal box for a 2 min habituation and then the trial began from the other (light) end of the beam. The beam was constructed with the following dimensions: 1.2 cm (width)×91 cm (length). The time taken for each animal to traverse the beam to reach the dark goal box and the immobility time spent between the moment when they were initially placed in the beam and when they started walking were documented. Five trials were recorded for each animal before CCI and at 1 and 2 weeks after CCI. The mean times to traverse the beam and the immobility times were calculated, and a plot was generated to evaluate treatment effects; these times were then used for statistical analysis.
(§3) In Vivo Model of TBI: TBI studies were conducted in 8-week-old male C57/BL6 mice (25-30 g; n=20), Jackson Laboratory, Bar Harbor, Maine USA. Mice were randomly assigned to four groups prior surgery, CMC+Sham, CMC+TBI, compound 30 (Low dose (LD), 14.78 mg/kg, prepared in 1% CMC in PBS)+TBI, compound 30 (High dose (HD), 29.57 mg/kg)+TBI, and evaluated the effects of compound 30 on TBI. Mice were assessed for gait function and motor coordination, balance function. Animals were subsequently evaluated for cellular changes using histological and immunohistochemistry staining.
Mice were anesthetized with 2.5% tribromoethanol (Avertin: 250 mg/kg; Sigma, St. Louis, MO, USA)) and placed in a mouse stereotaxic frame (Kopf Instruments, Tujunga, CA, USA) and fixed by ear bars and incisor bar. Under sterile procedures, the skin was retracted and a 5-mm square craniectomy was executed over right motor cortex at the posterior corner between the bregma and sagittal sutures. The skull was carefully removed by a drill to avoid damaging the dura underneath. The process of craniectomy proceeded without having the temporalis muscle impaired. The CCI device, Impact One (Leica Biosystems Inc., Buffalo Grove, IL, USA), consists of an electromagnetic impactor that allows alteration of injury severity by controlling contact velocity and the depth of cortical deformation independently. […]

CCI-induced TBI mice [3] = test: CCI mouse model of TBI: DigiGait gait analysis; format: in vivo; settings: high dose 32.5 mg/kg; 1 week after CCI
Protocol: as §1, §2
Gait analysis: For the gait analysis, mice were tested on a fixed-speed treadmill apparatus (DigiGait; Mouse Specifics). Mice were habituated to the apparatus for 1 min, and then given a 1-min run at 5 cm/s. Following a 1-min rest, the treadmill speed was increased to 15 cm/s. Video was collected at high speed from a ventrally placed camera, and 3-5 s of representative gait video was selected by an experienced but blinded user for automated analysis.
as §3, with “staining. […]” for “staining.”

RAW 264.7 cells = test: Cell viability of drug treated RAW 264.7 cells (CellTiter 96 AQueous One, MTS)
Protocol: Assessments of drug anti-TNF-α and nitric oxide generation in RAW 264.7 cells: RAW 264.7 cells were purchased from ATCC Manassas, VA, USA). The cells were grown in DMEM media (Invitrogen, DMEM, high glucose, GlutaMAX Supplement, pyruvate, #10569-010) supplemented with 10% FBS (Invitrogen, Fetal Bovine Serum, qualified, heat inactivated, #16140-071) with penicillin and streptomycin (Invitrogen, Penicillin-Streptomycin (10,000 U/mL), #15140-122) and were maintained at 37 C and 5% CO2. The cells were grown to 75%-85% confluence on 10 cm plates (corning-Fal-con, #353003) following the protocol described by ATTC. to assess for drug effects on LPS-induced markers of inflammation, namely TNF-α protein and nitrite ion levels (NO2, a stable end-product of nitric oxide metabolism) cells were seeded into 24 well (VWR, #10062-896) at a density of 200×10^3 cells per well. On each plate there was one blank well where no cells were added yet culture media in the well was treated similarly to wells with cells (n=1). The blank well media was used for background subtraction for various downstream assays. twenty-four hours after seeding the plate the seeding media was replaced with fresh media. Two hours after this the cells were exposed to a range of concentrations of drug test-compound(s) dissolved in 100% tissue culture grade dimethyl sjloxide (DMSO, SIGMA #D2650). Drug stocks were prepared in a 200 times more concentrated stock in DMSO. The final concentration of DMSO added to the cells was 0.5%. The effects of each concentration of drug were assessed in 4 wells per concentration in the 24 well plate (n=3 #-4). On each plate one set of wells were assigned as drug-vehicle control (i.e. DMSO), one test compound was assessed on one 24 well plate. […] One hour after the drugs were added the cells were challenged with lipopolysaccharide (LPS, SIGMA, serotype 055:B5) at a final concentration of 60 ng/ml. Twenty to twenty-four hours after the cells were challenged with LPS the culture media was collected and utilized for the measurement of markers of inflammation.
Cellular viability assessment of drug treated RAW 264.7 cells: RAW 264.7 cell viability was determined by use of the CellTiter 96 AQueous One Solution Cell Proliferation Assay (Promega, Madison, WI). Changes in cellular health status were determined by use of indirect measures related to the formation of a colored tetrazolium dye product that can be measured spectrophotometrically at 490 nm. An increase in absorbance at 490 nm is indicative of an increase in numbers of healthy cells; similarly a reduction in absorbance is indicative of a reduction of healthy cells. After the culture media was harvested for use in TNF-α and NO2— ion assays, the media was replaced with 0.5 mL of fresh media plus 100 μL of the cell viability reaction mixture. After a 20-30 min incubation at 37° C. with 5% CO2 the absorbance at 490 nm was obtained using an infinite M200 PRO plate reader (TECAN, USA).
Statistical analyses for RAW-derived assays: Data are expressed as a percentage change from the DMSO-vehicle control measurements. Measurements are expressed as mean±standard errors, where the n number represents the number of wells in a 24 well plate. Due to the presence of one blank control well on each plate, for some drug concentrations the n number is 3 # and not 4. Statistical comparisons were undertaken by use of a One-Way ANOVA with appropriate Bonferroni corrections for multiple comparisons, as required (GraphPad InStat Version 3.05). P values of <0.05 are considered to be of statistical significance.
RAW 264.7 cell culture: RAW 264.7 mouse cells were purchased from ATCC (Manassas, VA, USA) and grown in DMEM media supplemented with 10% FCS, penicillin 100 U/ml and streptomycin 100 μg/ml (ThermoFisher Scientific, Asheville, NC, USA). The cells were maintained at 37° C. and 5% CO2.

[4] = Phase I metabolic stability in human liver microsomes (+/- NADPH, LC/MS); format: in vitro ADME
Protocol: The fluorinated compounds were evaluated under the more metabolically demanding conditions of a Phase-1-type microsomal analysis. […] For this initial comparison, the 7-fluoro-dithiopomaldiomide 30 was selected owing to its combination of favorable biological parameters and general ease of synthesis. The reactions on each sample were initiated by addition of human liver microsomes in the presence or absence of an NADPH regenerating system, and compound disappearance was monitored via LC/MS (FIG. 14, Table 10).

Sequence of cereblon (CRBN/DDB1-CUL4A-Rbx1 complex) / BRD3 (Q96SW2 whole entry): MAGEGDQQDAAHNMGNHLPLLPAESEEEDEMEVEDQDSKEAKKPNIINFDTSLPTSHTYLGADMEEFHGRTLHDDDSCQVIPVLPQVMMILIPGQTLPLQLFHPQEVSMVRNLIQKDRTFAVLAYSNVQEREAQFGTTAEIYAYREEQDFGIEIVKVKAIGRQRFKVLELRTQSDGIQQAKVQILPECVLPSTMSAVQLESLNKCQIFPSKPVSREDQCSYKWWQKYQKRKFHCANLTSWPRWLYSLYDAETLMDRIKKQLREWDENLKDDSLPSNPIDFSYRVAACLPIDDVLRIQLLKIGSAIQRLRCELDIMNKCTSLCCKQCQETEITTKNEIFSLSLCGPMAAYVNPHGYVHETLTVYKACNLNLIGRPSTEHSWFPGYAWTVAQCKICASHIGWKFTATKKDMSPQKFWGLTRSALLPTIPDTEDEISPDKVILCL
Sequence of cereblon (CRBN/DDB1-CUL4A-Rbx1 complex) / BRD3 (Q16531 whole entry partner): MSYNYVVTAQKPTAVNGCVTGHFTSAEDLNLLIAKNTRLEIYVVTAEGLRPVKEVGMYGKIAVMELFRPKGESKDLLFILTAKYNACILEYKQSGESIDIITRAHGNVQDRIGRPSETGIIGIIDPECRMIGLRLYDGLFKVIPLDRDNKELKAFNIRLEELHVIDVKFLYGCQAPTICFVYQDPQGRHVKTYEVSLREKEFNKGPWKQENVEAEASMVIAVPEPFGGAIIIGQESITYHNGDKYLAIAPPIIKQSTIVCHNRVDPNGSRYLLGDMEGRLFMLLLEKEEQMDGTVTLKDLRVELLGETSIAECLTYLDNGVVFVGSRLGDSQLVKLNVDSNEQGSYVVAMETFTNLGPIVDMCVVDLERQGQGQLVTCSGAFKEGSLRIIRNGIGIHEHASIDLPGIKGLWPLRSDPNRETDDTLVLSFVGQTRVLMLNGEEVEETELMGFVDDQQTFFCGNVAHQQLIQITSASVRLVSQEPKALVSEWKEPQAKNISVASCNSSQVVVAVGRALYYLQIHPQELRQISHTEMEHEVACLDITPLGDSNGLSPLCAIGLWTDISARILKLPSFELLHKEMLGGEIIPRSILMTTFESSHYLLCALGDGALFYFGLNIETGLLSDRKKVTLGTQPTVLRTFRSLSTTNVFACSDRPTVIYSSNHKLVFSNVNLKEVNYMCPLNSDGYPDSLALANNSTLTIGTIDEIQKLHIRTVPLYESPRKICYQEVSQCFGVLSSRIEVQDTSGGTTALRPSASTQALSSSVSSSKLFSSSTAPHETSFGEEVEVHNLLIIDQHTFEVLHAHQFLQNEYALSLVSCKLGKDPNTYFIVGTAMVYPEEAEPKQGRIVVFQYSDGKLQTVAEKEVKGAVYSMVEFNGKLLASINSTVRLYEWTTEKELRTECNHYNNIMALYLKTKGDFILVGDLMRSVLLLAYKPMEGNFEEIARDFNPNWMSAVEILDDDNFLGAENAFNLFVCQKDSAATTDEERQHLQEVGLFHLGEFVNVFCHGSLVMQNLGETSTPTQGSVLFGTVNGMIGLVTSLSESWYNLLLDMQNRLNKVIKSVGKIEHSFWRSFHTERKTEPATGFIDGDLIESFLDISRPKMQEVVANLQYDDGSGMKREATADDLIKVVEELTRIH
Sequence of cereblon (CRBN/DDB1-CUL4A-Rbx1 complex) / BRD3 (Q13619 whole entry partner): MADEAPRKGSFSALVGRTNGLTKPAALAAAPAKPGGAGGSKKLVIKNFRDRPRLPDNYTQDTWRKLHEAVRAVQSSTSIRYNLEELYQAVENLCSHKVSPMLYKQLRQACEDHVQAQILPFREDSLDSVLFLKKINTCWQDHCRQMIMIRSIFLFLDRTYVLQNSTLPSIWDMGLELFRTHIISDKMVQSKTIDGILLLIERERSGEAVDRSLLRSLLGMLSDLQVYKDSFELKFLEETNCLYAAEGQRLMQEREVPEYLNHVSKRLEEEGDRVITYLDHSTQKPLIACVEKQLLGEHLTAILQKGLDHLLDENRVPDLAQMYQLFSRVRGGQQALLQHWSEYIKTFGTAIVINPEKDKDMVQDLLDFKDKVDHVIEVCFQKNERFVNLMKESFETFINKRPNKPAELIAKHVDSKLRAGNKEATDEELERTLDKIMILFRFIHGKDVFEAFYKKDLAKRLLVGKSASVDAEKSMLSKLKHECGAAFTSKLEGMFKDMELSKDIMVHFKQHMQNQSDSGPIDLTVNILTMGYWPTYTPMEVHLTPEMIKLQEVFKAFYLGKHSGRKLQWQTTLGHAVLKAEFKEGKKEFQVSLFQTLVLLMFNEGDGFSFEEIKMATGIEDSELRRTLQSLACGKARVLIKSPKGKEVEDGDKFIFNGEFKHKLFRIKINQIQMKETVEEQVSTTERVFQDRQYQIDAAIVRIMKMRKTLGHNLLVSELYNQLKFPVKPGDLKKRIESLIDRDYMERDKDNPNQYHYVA
Sequence of cereblon (CRBN/DDB1-CUL4A-Rbx1 complex) / BRD3 (P62877 whole entry partner): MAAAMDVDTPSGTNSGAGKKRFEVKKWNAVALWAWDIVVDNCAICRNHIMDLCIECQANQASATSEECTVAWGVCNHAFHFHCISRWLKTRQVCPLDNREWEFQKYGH

| SMILES | IC50 [1] [µM] | cereblon binding (in words) [1] | beam walking test average transit time (CCI-induced TBI mice [2]; higher dose 32.5 mg/kg i.p.) | beam walking test immobility time (CCI-induced TBI mice [2]; higher dose 32.5 mg/kg i.p.) | beam walking test average transit time (CCI-induced TBI mice [2]; lower dose 16.25 mg/kg i.p.) | beam walking test immobility time (CCI-induced TBI mice [2]; lower dose 16.25 mg/kg i.p.) | gait brake time (CCI-induced TBI mice [3]) | cell viability (RAW 264.7 cells; 1 μM, RAW 264.7 cells) [%] | Cell Viability % Δ (RAW 264.7 cells; 1 μM, RAW 264.7 cells, percentage of vehicle control value, mean ± S.E.M., n = 3) [%] | cell viability (in words) (RAW 264.7 cells; 100-1000 nM, vs LPS+Vehicle) | beam walking test average time (CCI-induced TBI mice [2]; high dose 29.57 mg/kg) | beam walking test, average time and contralateral foot falls (trend) (CCI-induced TBI mice [2]; treated groups 14.78, 29.57 mg/kg) | more material remaining compared to non-fluorinated partner ([4]; vs 4′, human liver microsomes) | more stability in the absolute sense ([4]; vs non-fluorinated 4′, human liver microsomes) [%] | stability in human liver microsomes (in words) ([4]; with and without NADPH) | cellular viability (RAW 264.7 cells; 0.6-60 μM, LPS 60 ng/mL, 24 h) [%] |
| --- | --- | --- | --- | --- | --- | --- | --- | --- | --- | --- | --- | --- | --- | --- | --- | --- |
| CC1(C)[C@@H]2CC[C@@]1(C)[C@@H](N1C(=O)c3c(F)c(F)c(F)c(F)c3C1=O)C2 [Compound 14, 4,5,6,7-Tetrafluoro-2-((1R,2S,4R)-1,7,7-trimethylbicyclo[2.2.1]heptan-2-yl) isoindoline-1,3-dione] | 53.4 | did not bind cereblon | prevented the CCI-induced behavioral impairment | prevented the CCI-induced behavioral impairment | but not the average transit time deficit | effective in mitigating the immobility measure | fully mitigates this rise | ≥ 94 | 95 ± 4 | not significantly affected; also recorded: without impact on cell viability | – | – | – | – | – | – |
| O=C1c2c(F)c(F)c(F)c(F)c2C(=O)N1C1CC2CCC1C2 (stereo not drawn) [Compound 16, 2-Endo-(bicyclo[2.2.1]heptan-2-yl)-4,5,6,7-tetrafluoroisoindoline-1,3-dione] | > 100 | did not bind cereblon | – | – | – | – | – | – | – | – | – | – | – | – | – | – |
| Nc1ccc(F)c2c1C(=S)N(C1CCC(=S)NC1=O)C2=O (stereo not drawn) [Compound 30, 4-amino-7-fluoro-2-(2-oxo-6-thioxopiperidin-3-yl)-3-thioxoisoindolin-1-one] | – | – | – | – | – | – | – | – | – | – | reached significant different | clear reducing trends | roughly 16% | 7 | heightened resistance; also recorded: enhanced metabolic fortitude | > 90 |
